This is an account of results in ChEMBL document CHEMBL4400540, “Structure-based design, synthesis and biological evaluation of a novel series of isoquinolone and pyrazolo[4,3-c]pyridine inhibitors of fascin 1 as potential anti-metastatic agents” (Bioorg Med Chem Lett, 2019).

Converted amounts (≈) assume the structure as drawn.

Data set [1] deals with T1, Fascin (Homo sapiens, UniProt Q16658).
Data set [2] has as its target T1, Fascin. The source holds these as a separate data set.
The target of data set [3] is T1, Fascin. Put plainly: Binding affinity to fascin 1 (unknown origin) by SPR assay.
Data set [4] is described as follows: Efflux ratio of apparent permeability of the compound in human Caco2 cells. The settings on record: caco-2. The format is ADME, cell-based.
Data set [5] has as its target T1, Fascin. This is another data set of the same source.
For data set [6], the target named is Cytochrome P450 2D6 (Homo sapiens, UniProt P10635). Put plainly: Inhibition of CYP2D6 (unknown origin). It is filed as ADME.
Cytochrome P450 2D6, sequence (P10635 whole entry): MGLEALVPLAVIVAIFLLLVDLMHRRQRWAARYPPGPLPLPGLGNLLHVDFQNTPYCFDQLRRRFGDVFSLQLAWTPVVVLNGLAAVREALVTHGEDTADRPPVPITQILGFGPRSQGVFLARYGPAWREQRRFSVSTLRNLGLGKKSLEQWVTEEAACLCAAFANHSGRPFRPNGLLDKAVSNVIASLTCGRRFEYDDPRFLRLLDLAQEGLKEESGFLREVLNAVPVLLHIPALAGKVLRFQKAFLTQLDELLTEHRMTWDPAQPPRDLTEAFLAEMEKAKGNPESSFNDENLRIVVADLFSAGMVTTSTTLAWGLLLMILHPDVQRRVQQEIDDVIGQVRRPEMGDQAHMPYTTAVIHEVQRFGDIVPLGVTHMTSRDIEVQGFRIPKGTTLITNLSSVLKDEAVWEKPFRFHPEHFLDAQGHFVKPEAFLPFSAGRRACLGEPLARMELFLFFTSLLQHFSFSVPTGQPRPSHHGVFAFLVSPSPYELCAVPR
Data set [7] can be described thus: Lipophilicity, log D of the compound at pH 7.4. The settings on record: buffer. It is filed as physicochemical.
A short description of data set [8]: Apparent permeability of the compound across apical side to basolateral side in human Caco2 cells. The format is ADME, cell-based. The settings on record: caco-2.
In data set [9] the target is Voltage-gated inwardly rectifying potassium channel KCNH2 (Homo sapiens, UniProt Q12809). Put plainly: Inhibition of human ERG.
Voltage-gated inwardly rectifying potassium channel KCNH2, sequence (Q12809 whole entry): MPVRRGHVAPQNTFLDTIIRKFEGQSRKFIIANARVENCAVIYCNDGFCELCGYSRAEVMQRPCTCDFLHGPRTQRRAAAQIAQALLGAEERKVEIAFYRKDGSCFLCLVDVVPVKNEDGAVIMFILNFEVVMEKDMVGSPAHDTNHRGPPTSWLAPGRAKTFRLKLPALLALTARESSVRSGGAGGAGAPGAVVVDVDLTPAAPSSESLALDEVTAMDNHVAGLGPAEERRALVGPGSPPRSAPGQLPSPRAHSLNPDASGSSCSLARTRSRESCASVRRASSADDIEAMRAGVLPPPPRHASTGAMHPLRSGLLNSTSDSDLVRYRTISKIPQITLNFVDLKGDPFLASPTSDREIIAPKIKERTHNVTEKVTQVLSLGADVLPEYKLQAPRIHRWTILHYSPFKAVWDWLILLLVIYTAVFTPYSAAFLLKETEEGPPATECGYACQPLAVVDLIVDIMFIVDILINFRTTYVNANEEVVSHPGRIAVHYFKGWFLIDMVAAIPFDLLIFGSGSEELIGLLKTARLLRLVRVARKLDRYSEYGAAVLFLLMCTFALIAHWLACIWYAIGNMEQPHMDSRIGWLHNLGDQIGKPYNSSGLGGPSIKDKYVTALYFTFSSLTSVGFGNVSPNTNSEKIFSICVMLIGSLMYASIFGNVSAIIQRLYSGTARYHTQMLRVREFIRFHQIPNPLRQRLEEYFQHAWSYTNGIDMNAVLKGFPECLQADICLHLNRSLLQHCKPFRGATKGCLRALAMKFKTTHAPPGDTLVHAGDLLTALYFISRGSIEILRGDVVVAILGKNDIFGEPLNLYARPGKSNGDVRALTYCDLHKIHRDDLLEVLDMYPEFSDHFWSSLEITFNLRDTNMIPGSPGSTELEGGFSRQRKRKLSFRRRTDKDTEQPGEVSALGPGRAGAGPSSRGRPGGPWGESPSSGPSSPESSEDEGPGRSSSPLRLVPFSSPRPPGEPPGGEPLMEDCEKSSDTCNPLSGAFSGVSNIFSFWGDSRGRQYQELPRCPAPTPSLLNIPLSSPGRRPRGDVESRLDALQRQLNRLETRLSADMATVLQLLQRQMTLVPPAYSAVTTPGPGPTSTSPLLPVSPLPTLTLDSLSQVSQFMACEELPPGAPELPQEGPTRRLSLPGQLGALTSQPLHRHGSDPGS
The target in data set [10] is Cytochrome P450 3A4 (Homo sapiens, UniProt P08684). Put plainly: Inhibition of CYP3A4 (unknown origin). It is filed as ADME.
Cytochrome P450 3A4, sequence (P08684 whole entry): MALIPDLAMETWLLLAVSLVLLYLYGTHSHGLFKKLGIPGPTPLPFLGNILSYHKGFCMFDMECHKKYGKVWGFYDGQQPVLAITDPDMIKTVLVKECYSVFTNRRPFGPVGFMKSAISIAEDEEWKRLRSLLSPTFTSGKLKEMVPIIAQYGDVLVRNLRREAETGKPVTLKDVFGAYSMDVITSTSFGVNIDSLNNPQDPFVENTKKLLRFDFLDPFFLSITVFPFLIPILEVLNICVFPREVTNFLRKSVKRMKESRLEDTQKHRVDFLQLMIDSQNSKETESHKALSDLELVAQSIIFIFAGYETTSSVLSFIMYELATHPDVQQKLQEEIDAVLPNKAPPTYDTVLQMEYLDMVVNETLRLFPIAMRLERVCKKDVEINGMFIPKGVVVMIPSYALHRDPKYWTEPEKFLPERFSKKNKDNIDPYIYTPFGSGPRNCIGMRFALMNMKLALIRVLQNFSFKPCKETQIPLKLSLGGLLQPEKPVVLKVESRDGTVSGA
Data set [11] is described as follows: Solubility of compound by turbidimetric method. The format is physicochemical.
Data set [12] has as its target Cytochrome P450 2C19 (Homo sapiens, UniProt P33261). Put plainly: Inhibition of CYP2C19 (unknown origin). The format is ADME.
A short description of data set [13]: Intrinsic clearance in mouse microsomes assessed per mg protein. It is filed as ADME, Microsome.
Data set [14] in a line: Intrinsic clearance in human microsomes assessed per mg protein. The format is ADME, Microsome.
The target in data set [15] is Cytochrome P450 2C9 (Homo sapiens, UniProt P11712). Put plainly: Inhibition of CYP2C9 (unknown origin). The format is ADME.
Cytochrome P450 2C9, sequence (P11712 whole entry): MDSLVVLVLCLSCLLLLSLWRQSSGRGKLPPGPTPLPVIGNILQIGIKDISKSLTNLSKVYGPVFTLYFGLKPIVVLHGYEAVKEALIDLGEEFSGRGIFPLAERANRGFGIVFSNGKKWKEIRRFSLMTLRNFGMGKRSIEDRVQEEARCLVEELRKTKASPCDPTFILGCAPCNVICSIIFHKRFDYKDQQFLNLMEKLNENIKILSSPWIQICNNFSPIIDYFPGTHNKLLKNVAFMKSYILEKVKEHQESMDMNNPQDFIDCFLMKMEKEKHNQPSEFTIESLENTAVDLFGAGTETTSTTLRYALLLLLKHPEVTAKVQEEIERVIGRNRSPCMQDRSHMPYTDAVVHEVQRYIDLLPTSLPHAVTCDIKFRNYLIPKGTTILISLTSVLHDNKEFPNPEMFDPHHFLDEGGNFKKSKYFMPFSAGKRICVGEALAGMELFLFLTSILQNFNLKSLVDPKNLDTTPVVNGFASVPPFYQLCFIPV

Cytochrome P450 2C19, sequence (P33261 whole entry): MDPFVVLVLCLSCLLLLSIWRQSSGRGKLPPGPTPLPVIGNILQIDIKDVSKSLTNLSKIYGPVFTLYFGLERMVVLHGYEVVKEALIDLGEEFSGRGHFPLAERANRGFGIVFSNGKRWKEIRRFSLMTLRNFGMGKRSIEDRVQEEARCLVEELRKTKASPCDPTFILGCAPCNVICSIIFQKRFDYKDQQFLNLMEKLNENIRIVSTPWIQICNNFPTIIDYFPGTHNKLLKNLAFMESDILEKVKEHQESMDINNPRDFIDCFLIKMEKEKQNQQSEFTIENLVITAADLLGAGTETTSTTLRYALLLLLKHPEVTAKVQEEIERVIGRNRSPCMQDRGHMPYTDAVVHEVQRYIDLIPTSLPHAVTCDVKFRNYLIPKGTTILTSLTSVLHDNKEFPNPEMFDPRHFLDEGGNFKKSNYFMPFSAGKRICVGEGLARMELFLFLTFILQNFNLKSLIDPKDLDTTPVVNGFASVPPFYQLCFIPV

Consider `Cn1cc(NC(=O)c2cn(Cc3ccc(Cl)cc3)c(=O)c3ccccc23)cn1`, for which the Kd in data set [1] came to 2.7 µM. The same compound showed a half-inhibitory concentration (IC50) in [2] of 4.6 µM.

For `Cn1cc(NC(=O)c2cn(Cc3ccc(Cl)c(Cl)c3)c(=O)c3cccnc23)cn1`, the Kd in data set [1] was over 100 µM.

Compound `Cn1cc(NC(=O)c2cn(Cc3ccc(Cl)c(Cl)c3)c(=O)c3cnn(C4CCS(=O)(=O)C4)c23)cn1` (configuration not stated) returned a Kd in data set [1] of 0.6 µM. Besides, in [2], 0.63 µM corresponded to half-maximal inhibition (IC50).

`Cn1cc(NC(=O)c2cn(Cc3ccc(Cl)c(Cl)c3)c(=O)c3ccccc23)cn1` came in with a dissociation constant Kd in data set [1] of 1.5 µM. Besides, in [2], half-maximal inhibition (IC50) required 1.3 µM.

For `Cn1cc(NC(=O)c2cn(Cc3ccccc3)c(=O)c3ccccc23)cn1`, the Kd in data set [1] worked out at 29.3 µM. Besides, the midpoint of inhibition in data set [2], the IC50, lay at 67.9 µM.

With `CC(=O)N(C)c1ccc(Cl)cc1Cl`, binding in [3] was put at a Kd of 92 µM.

As for `O=C(Nc1cnn(C2CCNC2)c1)c1ccc(=O)n(Cc2ccc(Cl)c(Cl)c2)c1` (configuration not stated), the dissociation constant Kd in [1] was over 100 µM.

For the compound `Nc1cc(C(=O)Nc2cnn(C3CCNC3)c2)cn(Cc2ccc(Cl)c(Cl)c2)c1=O` (configuration not stated), in data set [1], the Kd came to 21 µM. In addition, the IC50 in data set [2] is over 100 µM.

In data set [1], `O=C(Nc1ccncc1)c1cn(Cc2ccc(Cl)c(Cl)c2)c(=O)c2cnn(C3CCS(=O)(=O)C3)c12` (configuration not stated) came in with a dissociation constant Kd of 0.27 µM. The same compound registered an IC50 in [2] of 0.33 µM.

Regarding `Cn1cc(NC(=O)c2cn(Cc3cccc(Cl)c3)c(=O)c3ccccc23)cn1`, the Kd in [1] was 7.6 µM. In [2], half-maximal inhibition (IC50) was put at 11.4 µM.

In turn, `CN(c1cc2c(C(=O)Nc3cnn(C)c3)cn(Cc3ccc(Cl)c(Cl)c3)c(=O)c2cn1)S(C)(=O)=O` showed a dissociation constant (Kd) in data set [1] of 2 µM.

`O=c1c2cn[nH]c2ncn1Cc1ccc(Cl)c(Cl)c1` had a dissociation constant Kd in [1] of over 500 µM.

In the case of `O=C(Nc1ccncc1)c1cn(Cc2ccc(Cl)c(Cl)c2)c(=O)c2cnn(C3CCNCC3)c12`, in data set [4], the Ratio came out at 37.8. Further, the Kd in [5] stood at 0.05 µM; in data set [1], 0.09 µM. Moreover, the concentration for half-maximal inhibition (IC50) in data set [6] is 1.6 µM; in data set [9] it was over 25 µM; in data set [10], 7 µM; in data set [12], 22 µM; in data set [2], 0.24 µM; in data set [15], 5.9 µM. The compound further showed a logD in data set [7] of 1.8. For the same compound, the Papp in [8] stood at 0.15 ×10⁻⁶ cm/s. In data set [11], the solubility (kinetic) was 65 µM (≈ 32.3 µg/mL). In addition, the CL in [13] was 11.8 µL/min; in data set [14], 6.4 µL/min.

On to `O=c1c2cnn(C3CCS(=O)(=O)C3)c2ncn1Cc1ccc(Cl)c(Cl)c1` (configuration not stated), for which half-maximal inhibition in data set [2] (IC50) required 67.6 µM.

The compound `Cn1cc(NC(=O)c2cn(Cc3ccc(Cl)c(Cl)c3)c(=O)c3cnc(N4CCNCC4)cc23)cn1` showed a Kd in [1] of 0.58 µM. The compound further had an IC50 in [2] of 0.63 µM.

In data set [1], `Cn1cc(NC(=O)c2cn(Cc3ccc(Cl)c(Cl)c3)c(=O)c3ncccc23)cn1` returned a Kd of over 100 µM.
